Measurements taken from patent US20240196889A1, “USE OF DI- AND TRI[…] ACIDS IN THE PREVENTION OF BIOFILM FORMATION” (priority 2020, published 2024).
≈ marks a conversion by molar mass, not a printed value.

Assays:
[1] = test system: Salmonella; assay: Minimal inhibitory concentration (MIC) assay; type: cell-based, Salmonella enterica serovar Typhimurium; details: TSB 1/20, 24 h, 25° C., same conditions as the biofilm assay
Procedure: MIC values were determined in a 96-well plate. Two-fold serial dilutions of agaric acid or DMSO were prepared in 100 μl of TSB 1/20 and 100 μL of the inoculum diluted 1/100 in TSB 1/20 was added. The plate was covered with a Breathable Sealing Membrane and a lid and incubated for 24 h at 25° C., shaking at 200 rpm.

[2] = test system: S. Typhimurium ATCC 14028; assay: Petri dish biofilm assay (CFU); type: cell-based, Salmonella enterica serovar Typhimurium; details: 100 μM, 48 h, 25° C.
Procedure: ONCs of S. Typhimurium ATCC 14028 were normalized to an OD595 of 3.2 and diluted 1/100 in a small (60 mm Ø) glass Petri dishes containing 10 ml of 1/20 TSB to which a final concentration of 100 μM agaric or the corresponding amount of DMSO was added. Around 12*10^7 ml^−1 cells were inoculated and incubated under static conditions at 25° C. for 48 h. Afterwards, the liquid above the biofilms was poured off and the biofilms were scraped off the bottom of the plate in 1 ml of PBS, passed through a syringe (25 G) and vortexed to break down the biofilm structure and ensure an homogenous suspension during dilution [Hermans et al. (2011). Journal of microbiological methods 84, 467-478]. The number of colony forming units (CFU) of biofilms was determined by plating.

[3] = test system: S. Typhimurium ATCC 14028; assay: Microscopic analysis of fluorescently labelled biofilms; type: cell-based, Salmonella enterica serovar Typhimurium; details: 100 μM, 48 h
Procedure: ONCs of S. Typhimurium ATCC 14028 containing the pFPV25.1 plasmid encoding for constitutive GFPmut3 productions were normalized to an an OD595 of 3.2 and 20 μl was added to a glass bottom microwell dishes (35 mm Ø petri dish, 20 mm Ø microwell) containing 2 ml 1/20 TSB and 100 μg ml^−1 of ampicillin and a final concentration of 100 μM agaric or the corresponding amount of DMSO. Around 12*10^7 ml^−1 cells were inoculated and incubated under static conditions at 25° C. for 48 h. After incubation, the planktonic phase was gently poured off and the biofilm was washed with 1 ml PBS. Biofilms were visualized with […]

[4] = test system: motA deletion mutant; assay: Biofilm formation of motA deletion mutant; type: cell-based, Salmonella; details: addition of agaric acid to the deletion mutant
[5] = test system: Salmonella biofilms; assay: Tolerance assay of mature biofilms (H2O2 or ciprofloxacin, CFU); type: cell-based; details: grown 48 h with 100 μM
Procedure: It is well established that biofilms can be extremely tolerant to treatment with antimicrobials. To test whether the preventive addition of agaric acid renders Salmonella biofilms more susceptible to treatment with common disinfectants or antibiotics, biofilms grown in the presence and absence of agaric acid for 48 hour were treated for 1 h with 0.25% H2O2 or 1 μM ciprofloxacin. Hydrogen peroxide is a commonly used disinfectant in food industry [Meireles et al. (2016) Food Research International 82, 71-85; Meireles et al. (2016) Food Research International 82, 71-85], whereas ciprofloxacin is a fluoroquinolone antibiotic frequently used to treat Salmonella infections [Tabak et al. (2009) FEMS microbiology letters 301, 69-76].
To determine the tolerance of mature biofilms, biofilms were grown on microscopy glasses (75 mm×25 mm) placed vertical in a 50 ml falcon filled with 30 ml TSB 1/20. This set-up allows for easy transfer of mature biofilms as the top of vertical slide sticks out of the medium which allows to grab the slide with a pincer without damaging the biofilm. ONC of Salmonella were normalized to an OD600 of 3.2 and diluted 1/100 into the broth containing either a final concentration of 100 μM agaric or the corresponding amount of DMSO. […] The number of colony forming units (CFU) of biofilms was determined by plating.

[6] = test system: E. coli TG1; assay: Antibiofilm assay (Calgary biofilm device); type: cell-based, Escherichia coli
Procedure: A static peg assay for the prevention of bacterial biofilm formation was used as described previously. A lid carrying 96 polystyrene pegs was fitted into a microtiter plate with a peg hanging into each well. Two-fold serial dilutions of the compounds in 100 μl liquid broth per well were prepared in the microtiter plate. Subsequently, an overnight culture was diluted 1:100 into the respective liquid broth, and 100 μl (˜10^6 cells) was added to each well of the microtiter plate, resulting in a total amount of 200 μl medium per well. After placing the lid on the microtiter plate, samples containing Salmonella, Pseudomonas or E. coli were incubated statically in TSB 1/20 for 48 h at 25° C., whereas S. aureus was incubated in undiluted TSB at 37° C. for 48 h. After incubation, the lid was removed from the microtiter plate and liquid culture was transferred to a new microtiter plate prior to determining the prior to determining the planktonic growth in each well via OD600 measurements using a Synergy MX multimode reader (Biotek, Winooski, VT). The pegs were washed once in 200 μl PBS and the remaining attached bacteria were stained for 30 min with 200 μl 0.1% crystal violet in an isopropanol-methanol-PBS solution (1:1:18). […] The OD570 of each well was measured using a Synergy MX multimode reader. Data was analysed using the GraphPad Prism 6 software.

[7] = test system: P. aeruginosa PA14; assay: Antibiofilm assay (Calgary biofilm device); type: cell-based, Pseudomonas aeruginosa
Procedure: A static peg assay for the prevention of bacterial biofilm formation was used as described previously. A lid carrying 96 polystyrene pegs was fitted into a microtiter plate with a peg hanging into each well. Two-fold serial dilutions of the compounds in 100 μl liquid broth per well were prepared in the microtiter plate. Subsequently, an overnight culture was diluted 1:100 into the respective liquid broth, and 100 μl (˜10^6 cells) was added to each well of the microtiter plate, resulting in a total amount of 200 μl medium per well. After placing the lid on the microtiter plate, samples containing Salmonella, Pseudomonas or E. coli were incubated statically in TSB 1/20 for 48 h at 25° C., whereas S. aureus was incubated in undiluted TSB at 37° C. for 48 h. After incubation, the lid was removed from the microtiter plate and liquid culture was transferred to a new microtiter plate prior to determining the prior to determining the planktonic growth in each well via OD600 measurements using a Synergy MX multimode reader (Biotek, Winooski, VT). The pegs were washed once in 200 μl PBS and the remaining attached bacteria were stained for 30 min with 200 μl 0.1% crystal violet in an isopropanol-methanol-PBS solution (1:1:18). Excess stain was washed off by placing the pegs in a 96-well plate filled with 200 μl distilled water per well. Afterwards, the pegs were air dried for 30 min and the dye bound to the adherent cells dissolved into 200 μl 30% glacial acetic acid. The OD570 of each well was measured using a Synergy MX multimode reader. Data was analysed using the GraphPad Prism 6 software.

SMILES: CCCCCCCCCCCCCCCCC(C(=O)O)C(O)(CC(=O)O)C(=O)O (stereo not drawn) [Agaric acid, 2-hydroxynonadecane-1,2,3-tricarboxylic acid]
- MIC [1]: 8 mM (≈ 3330 µg/mL)
- number of cells (CFU) attaching to bottom of glass petri dish [2]: significantly inhibits the number of Salmonella cells attaching to the surface
- biofilm density by microscopy [3]: less dense compared to the control
- biofilm formation of motA deletion mutant [4]: did not further reduce biofilm formation
- susceptibility of biofilms to ciprofloxacin ([5]; then 1 μM ciprofloxacin for 1 h): further increased the effect of a ciprofloxacin treatment, albeit not significantly
- susceptibility of biofilms to H2O2 ([5]; then 0.25% H2O2 for 1 h): significantly more susceptible to hydrogen peroxide
- planktonic growth (OD600) [6]: unaffected, except for an increase at the highest concentration
- concentration at which significant biofilm inhibition already occurred ([6]; crystal violet staining): 12.5 µM
- planktonic growth (OD600) [7]: inhibits
- biofilm inhibition versus planktonic growth inhibition ([7]; comparison of effective concentrations): planktonic growth is reduced at lower concentrations than biofilm inhibition
- biofilm formation ([7]; crystal violet staining): inhibits
- biofilm inhibition versus planktonic growth inhibition at high concentrations ([7]; high concentrations of agaric acid): biofilm formation is inhibited to a higher extent than planktonic growth
